This passage reports EC50 results from patent US9499550B2 (BRISTOL-MYERS SQUIBB COMPANY, priority 2012, dated 2016).

Where two headings read alike, the source gives them in different places. A value given as a limit tells only on which side of the number the result lay.

The subject of assay [1] is HCV genotype 1a (H77 strain) replicon in HUH-7 cells. The experiment in a line: HCV replicon luciferase reporter assay, genotype 1a. It counts as cell-based. The conditions noted are these: Hepatitis C virus, Huh-7, 72 h, HCV genotype 1a replicon luciferase, 3 days incubation. In outline:
(§1)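 Replicon inhibition for both genotypes was measured as Renilla luciferase signal (EnduRen, 7.5 μM final, 2 h) after 3-day, 37° C exposure of replicon-bearing HUH-7 cells in 4% FCS DMEM, 0.5% DMSO. The 1b construct carries S1179I; the 1a H77 construct carries P1496L and S2204I. Twenty-point, 3-fold dilutions were fitted four-parametrically for EC50, and CC50 was taken from multiplexed Cell Titer-Blue.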
For orientation: Replicon systems follow genome replication, usually without infectious particles.

Assay [2] deals with HCV genotype 1b (Con1) replicon in HUH-7 cells. The experiment in a line: HCV replicon luciferase reporter assay, genotype 1b. The conditions noted are these: Hepatitis C virus, Huh-7, 72 h, HCV genotype 1b replicon luciferase, 3 days incubation. The class given is cell-based. In outline: as §1
The mark [3] stands for this setting: GETYPE1A, read-out: LE_1a (EC50, range).
The mark [4] stands for this setting: GETYPE1B, read-out: LE_1b (EC50, range).

Regarding `CCOc1cnc(O[C@@H]2C[C@H]3C(=O)N[C@]4(C(=O)NS(=O)(=O)C5(CF)CC5)C[C@H]4/C=C\CC[C@@H](C)C[C@@H](C)[C@H](NC(=O)OC(C)(C)C(F)(F)F)C(=O)N3C2)c2ccccc12` [Compound 4149], the EC50 in assay [1] (setting [3]) and in assay [2] (setting [4]) was less than 5.46 nM each time.

`COc1ccc2c(O[C@@H]3C[C@H]4C(=O)N[C@]5(C(=O)NS(=O)(=O)C6(CF)CC6)C[C@H]5/C=C\CC[C@@H](C)C[C@@H](C)[C@H](NC(=O)OC(C)(C)C(F)(F)F)C(=O)N4C3)nccc2c1` [Compound 4151]: the EC50 in assay [1] (setting [3]) and in assay [2] (setting [4]) was less than 5.46 nM throughout.

On to `COc1cnc(O[C@@H]2C[C@H]3C(=O)N[C@]4(C(=O)NS(=O)(=O)C5(Cl)CC5)C[C@H]4/C=C\CC[C@@H](C)C[C@@H](C)[C@H](NC(=O)OC(C)(C)C(F)(F)F)C(=O)N3C2)c2ccccc12` [Compound 4153], for which the 50% effective concentration (EC50) in assay [1] (setting [3]) and in assay [2] (setting [4]) was less than 5.46 nM each time.

As to `COc1ccc2c(O[C@@H]3C[C@H]4C(=O)N[C@]5(C(=O)NS(=O)(=O)C6(CF)CC6)C[C@H]5/C=C\CC[C@@H](C)C[C@@H](C)[C@H](NC(=O)OC(C)(C)C(F)(F)F)C(=O)N4C3)ncc(OC)c2c1` [Compound 4154], the EC50 in assay [1] (setting [3]) and in assay [2] (setting [4]) was less than 5.46 nM in each case.

Take `COc1cnc(O[C@@H]2C[C@H]3C(=O)N[C@]4(C(=O)NS(=O)(=O)C5(CF)CC5)C[C@H]4/C=C\CC[C@@H](C)C[C@@H](C)[C@H](NC(=O)OC(C)(C)C(F)(F)F)C(=O)N3C2)c2ccccc12` [Compound 4155]: the EC50 in assay [1] (setting [3]) and in assay [2] (setting [4]) was less than 5.46 nM each time.

As for `COc1ccc2c(O[C@@H]3C[C@H]4C(=O)N[C@]5(C(=O)NS(=O)(=O)C6(CF)CC6)C[C@H]5/C=C\CC[C@@H](C)C[C@@H](C)[C@H](NC(=O)OC(C)(C)C)C(=O)N4C3)ncc(OC)c2c1` [Compound 4156, tert-butyl (2R,6S,7R,9R,13aS,14aR,16aS,Z)-2-(4,6-dimethoxyisoquinolin-1-yloxy)-14a-(1-(fluoromethyl)cyclopropylsulfonylcarbamoyl)-7,9-dimethyl-5,16-dioxo-1,2,3,5,6,7,8,9,10,11,13a,14,14a,15,16,16a-hexadecahydrocyclopropa[e]pyrrolo[1,2-a][1,4]diazacyclopentadecin-6-ylcarbamate], the EC50 – broadly, the concentration needed to bring the measured effect to its halfway point – in assay [1] (read-out: LE_1a (EC50, range)) was less than 5.46 nM; in assay [2] (read-out: LE_1b (EC50, range)), less than 5.46 nM.

Turning to `COc1cnc(O[C@@H]2C[C@H]3C(=O)N[C@]4(C(=O)NS(=O)(=O)C5(CF)CC5)C[C@H]4/C=C\CC[C@@H](C)C[C@@H](C)[C@H](NC(=O)OC(C)(C)C)C(=O)N3C2)c2ccccc12` [Compound 4157, tert-butyl (2R,6S,7R,9R,13aS,14aR,16aS,Z)-14a-(1-(fluoromethyl)cyclopropylsulfonylcarbamoyl)-2-(4-methoxyisoquinolin-1-yloxy)-7,9-dimethyl-5,16-dioxo-1,2,3,5,6,7,8,9,10,11,13a,14,14a,15,16,16a-hexadecahydrocyclopropa[e]pyrrolo[1,2-a][1,4]diazacyclopentadecin-6-ylcarbamate], the EC50 in assay [1] (read-out: LE_1a (EC50, range)) was less than 5.46 nM; in assay [2] (read-out: LE_1b (EC50, range)), less than 5.46 nM.

For `C[C@@H]1CC/C=C\[C@@H]2C[C@@]2(C(=O)NS(=O)(=O)C2(C)CC2)NC(=O)[C@@H]2C[C@@H](Oc3ncc(OCC4CC4)c4ccccc34)CN2C(=O)[C@@H](NC(=O)OC(C)(C)C(F)(F)F)[C@H](C)C1` [Compound 4158], the EC50 in assay [1] (setting [3]) and in assay [2] (setting [4]) was less than 5.46 nM in each case.

Take `COc1cc2ccnc(O[C@@H]3C[C@H]4C(=O)N[C@]5(C(=O)NS(=O)(=O)C6(CF)CC6)C[C@H]5/C=C\CC[C@@H](C)C[C@@H](C)[C@H](NC(=O)OC(C)(C)C)C(=O)N4C3)c2cc1F` [Compound 4159, tert-butyl (2R,6S,7R,9R,13aS,14aR,16aS,Z)-2-(7-fluoro-6-methoxyisoquinolin-1-yloxy)-14a-(1-(fluoromethyl)cyclopropylsulfonylcarbamoyl)-7,9-dimethyl-5,16-dioxo-1,2,3,5,6,7,8,9,10,11,13a,14,14a,15,16,16a-hexadecahydrocyclopropa[e]pyrrolo[1,2-a][1,4]diazacyclopentadecin-6-ylcarbamate]: the EC50 was less than 5.46 nM in assay [1] (read-out: LE_1a (EC50, range)) and less than 5.46 nM in assay [2] (read-out: LE_1b (EC50, range)).

As to `COc1cc2c(OC)cnc(O[C@@H]3C[C@H]4C(=O)N[C@]5(C(=O)NS(=O)(=O)C6(CF)CC6)C[C@H]5/C=C\CC[C@@H](C)C[C@@H](C)[C@H](NC(=O)OC(C)(C)C(F)(F)F)C(=O)N4C3)c2cc1F` [Compound 4160], the EC50 in assay [1] (setting [3]) and in assay [2] (setting [4]) was less than 5.46 nM each time.

Regarding `COc1cc2ccnc(O[C@@H]3C[C@H]4C(=O)N[C@]5(C(=O)NS(=O)(=O)C6(CF)CC6)C[C@H]5/C=C\CC[C@@H](C)C[C@@H](C)[C@H](NC(=O)OC(C)(C)C(F)(F)F)C(=O)N4C3)c2cc1F` [Compound 4161], the concentration for a half-maximal effect (EC50) in assay [1] (setting [3]) and in assay [2] (setting [4]) was less than 5.46 nM throughout.

Turning to `COc1ccc2ncc(O[C@@H]3C[C@H]4C(=O)N[C@]5(C(=O)NS(=O)(=O)C6(C)CC6)C[C@H]5/C=C\CC[C@@H](C)C[C@@H](C)[C@H](NC(=O)OC(C)(C)C(F)(F)F)C(=O)N4C3)nc2c1` [Compound 4162], the EC50 in assay [1] (setting [3]) and in assay [2] (setting [4]) was less than 5.46 nM each time.

For the compound `COc1ccc2nc(O[C@@H]3C[C@H]4C(=O)N[C@]5(C(=O)NS(=O)(=O)C6(C)CC6)C[C@H]5/C=C\CC[C@@H](C)C[C@@H](C)[C@H](NC(=O)OC(C)(C)C(F)(F)F)C(=O)N4C3)cnc2c1` [Compound 4163], the EC50 in assay [1] (GETYPE1A, read-out: LE_1a (EC50)) was 9.8 nM; in assay [1] (setting [3]), 4.82 to 103 nM; in assay [2] (GETYPE1B, read-out: LE_1b (EC50)), 1.89 nM; in assay [2] (setting [4]), less than 5.46 nM.

`COc1cc2c(OC)cnc(O[C@@H]3C[C@H]4C(=O)N[C@]5(C(=O)NS(=O)(=O)C6(C)CC6)C[C@H]5/C=C\CC[C@@H](C)C[C@@H](C)[C@H](NC(=O)OC(C)(C)C(F)(F)F)C(=O)N4C3)c2cc1F` [Compound 4164]: the 50% effective concentration (EC50) in assay [1] (setting [3]) and in assay [2] (setting [4]) was less than 5.46 nM each time.

Regarding `COc1cc2ccnc(O[C@@H]3C[C@H]4C(=O)N[C@]5(C(=O)NS(=O)(=O)C6(CF)CC6)C[C@H]5/C=C\CC[C@@H](C)C[C@@H](C)[C@H](NC(=O)C(C)(C)C)C(=O)N4C3)c2cc1F` [Compound 4165, (2R,6S,7R,9R,13aS,14aR,16aS,Z)-2-(7-fluoro-6-methoxyisoquinolin-1-yloxy)-N-(1-(fluoromethyl)cyclopropylsulfonyl)-7,9-dimethyl-5,16-dioxo-6-pivalamido-1,2,3,5,6,7,8,9,10,11,13a,14,14a,15,16,16a-hexadecahydrocyclopropa[e]pyrrolo[1,2-a][1,4]diazacyclopentadecine-14a-carboxamide], the EC50 in assay [1] (read-out: LE_1a (EC50, range)) was less than 5.46 nM; in assay [2] (read-out: LE_1b (EC50, range)), less than 5.46 nM.

On to `C[C@@H]1CC/C=C\[C@@H]2C[C@@]2(C(=O)NS(=O)(=O)C2CC2)NC(=O)[C@@H]2C[C@@H](Oc3ncc(OCC4CC4)c4ccc(F)cc34)CN2C(=O)[C@@H](NC(=O)OC(C)(C)C)[C@H](C)C1` [Compound 4166, tert-butyl (2R,6S,7R,9R,13aS,14aR,16aS,Z)-2-(4-(cyclopropylmethoxy)-7-fluoroisoquinolin-1-yloxy)-14a-(cyclopropylsulfonylcarbamoyl)-7,9-dimethyl-5,16-dioxo-1,2,3,5,6,7,8,9,10,11,13a,14,14a,15,16,16a-hexadecahydrocyclopropa[e]pyrrolo[1,2-a][1,4]diazacyclopentadecin-6-ylcarbamate], for which the EC50 in assay [1] (read-out: LE_1a (EC50, range)) was less than 5.46 nM; in assay [2] (read-out: LE_1b (EC50, range)) it was less than 5.46 nM.

As to `COc1ccc2c(O[C@@H]3C[C@H]4C(=O)N[C@]5(C(=O)NS(=O)(=O)C6(CF)CC6)C[C@H]5/C=C\CC[C@@H](C)C[C@@H](C)[C@H](NC(=O)OC(C)(C)C)C(=O)N4C3)nc(-c3ccc(OC(C)C)cc3)cc2c1` [Compound 4167, tert-butyl (2R,6S,7R,9R,13aS,14aR,16aS,Z)-14a-(1-(fluoromethyl)cyclopropylsulfonylcarbamoyl)-2-(3-(4-isopropoxyphenyl)-6-methoxyisoquinolin-1-yloxy)-7,9-dimethyl-5,16-dioxo-1,2,3,5,6,7,8,9,10,11,13a,14,14a,15,16,16a-hexadecahydrocyclopropa[e]pyrrolo[1,2-a][1,4]diazacyclopentadecin-6-ylcarbamate], the EC50 in assay [1] (read-out: LE_1a (EC50, range)) is less than 5.46 nM; in assay [2] (read-out: LE_1b (EC50, range)), less than 5.46 nM.

`COc1cc2ccnc(O[C@@H]3C[C@H]4C(=O)N[C@]5(C(=O)NS(=O)(=O)C6CC6)C[C@H]5/C=C\CC[C@@H](C)C[C@@H](C)[C@H](NC(=O)OC(C)(C)C(F)(F)F)C(=O)N4C3)c2cc1F` [Compound 4169]: the EC50 in assay [1] (setting [3]) and in assay [2] (setting [4]) was less than 5.46 nM throughout.

For `COc1ccc2ncc(O[C@@H]3C[C@H]4C(=O)N[C@]5(C(=O)NS(=O)(=O)C6(CF)CC6)C[C@H]5/C=C\CC[C@@H](C)C[C@@H](C)[C@H](NCC(F)F)C(=O)N4C3)nc2c1` [Compound 4170], the concentration giving a half-maximal response (EC50) in assay [1] (read-out: LE_1a (EC50, range)) is greater than 87.4 nM; in assay [2] (read-out: LE_1b (EC50, range)), 4.82 to 103 nM.

Regarding `COc1ccc2c(O[C@@H]3C[C@H]4C(=O)N[C@]5(C(=O)NS(=O)(=O)C6(CF)CC6)C[C@H]5/C=C\CC[C@@H](C)C[C@@H](C)[C@H](NC(=O)c5ccncc5F)C(=O)N4C3)ncc(OC)c2c1` [Compound 4171, (2R,6S,7R,9R,13aS,14aR,16aS,Z)-2-(4,6-dimethoxyisoquinolin-1-yloxy)-6-(3-fluoroisonicotinamido)-N-(1-(fluoromethyl)cyclopropylsulfonyl)-7,9-dimethyl-5,16-dioxo-1,2,3,5,6,7,8,9,10,11,13a,14,14a,15,16,16a-hexadecahydrocyclopropa[e]pyrrolo[1,2-a][1,4]diazacyclopentadecine-14a-carboxamide], the EC50 in assay [1] (read-out: LE_1a (EC50, range)) was less than 5.46 nM; in assay [2] (read-out: LE_1b (EC50, range)), less than 5.46 nM.
